Source: PubChem BioAssay AID1259407 (Chemical Carcinogenesis Research Information System (CCRIS), 2018)
Activity calls are given as the source filed them. The rule behind the calls is not given here.

Tested on: CCRIS mutagenicity, Ames/micronucleus/aberration tests
Test: CCRIS mutagenicity studies
[1] = Test System: AMES SALMONELLA TYPHIMURIUM, Strain/Indicator: TA97, Metabolic Activation: NONE, Method: STANDARD PLATE
[2] = Test System: AMES SALMONELLA TYPHIMURIUM, Strain/Indicator: TA97, Metabolic Activation: RAT, LIVER, S-9, AROCLOR 1254, Method: STANDARD PLATE
[3] = Test System: AMES SALMONELLA TYPHIMURIUM, Strain/Indicator: TA98, Metabolic Activation: NONE, Method: STANDARD PLATE
[4] = Test System: AMES SALMONELLA TYPHIMURIUM, Strain/Indicator: TA98, Metabolic Activation: RAT, LIVER, S-9, AROCLOR 1254, Method: STANDARD PLATE
[5] = Test System: AMES SALMONELLA TYPHIMURIUM, Strain/Indicator: TA100, Metabolic Activation: NONE, Method: STANDARD PLATE
[6] = Test System: AMES SALMONELLA TYPHIMURIUM, Strain/Indicator: TA100, Metabolic Activation: RAT, LIVER, S-9, AROCLOR 1254, Method: STANDARD PLATE
[7] = Test System: AMES SALMONELLA TYPHIMURIUM, Strain/Indicator: TA98, Metabolic Activation: NONE, Method: PREINCUBATION
[8] = Test System: AMES SALMONELLA TYPHIMURIUM, Strain/Indicator: TA100, Metabolic Activation: NONE, Method: PREINCUBATION
[9] = Test System: AMES SALMONELLA TYPHIMURIUM, Strain/Indicator: TA1535, Metabolic Activation: NONE, Method: PREINCUBATION
[10] = Test System: AMES SALMONELLA TYPHIMURIUM, Strain/Indicator: TA1537, Metabolic Activation: NONE, Method: PREINCUBATION
[11] = Test System: AMES SALMONELLA TYPHIMURIUM, Strain/Indicator: TA1538, Metabolic Activation: NONE, Method: PREINCUBATION

Cn1c([N+](=O)[O-])cnc1C1NC(CO)(CO)CO1 (centres undefined)
mutagenic call [1]: active; positive | mutagenic call [2]: active; positive | mutagenic call [3]: active; positive | mutagenic call [4]: active; positive | mutagenic call [5]: active; positive | mutagenic call [6]: active; positive | mutagenic call (Test System: AMES SALMONELLA TYPHIMURIUM, Strain/Indicator: TA102, Metabolic Activation: NONE, Method: STANDARD PLATE): active; positive | mutagenic call (Test System: AMES SALMONELLA TYPHIMURIUM, Strain/Indicator: TA102, Metabolic Activation: RAT, LIVER, S-9, AROCLOR 1254, Method: STANDARD PLATE): active; positive

CN1CCC[C@H]1c1cccnc1
mutagenic call (End Point: IN VITRO MICRONUCLEUS, Test System: HUMAN GINGIVAL FIBROBLASTS, Metabolic Activation: NONE): active; positive | mutagenic call (End Point: In vivo micronucleus, Test System: Bone marrow polychromatic erythrocytes, Species: Mouse, Strain/Sex: Swiss/Female, Route: Oral): inactive; negative | mutagenic call [1]: inactive; negative | mutagenic call [2]: inactive; negative | mutagenic call [7]: inactive; negative | mutagenic call [3]: inactive; negative | mutagenic call (Test System: AMES SALMONELLA TYPHIMURIUM, Strain/Indicator: TA98, Metabolic Activation: RAT, LIVER, S-9, AROCLOR 1254 (5%), Method: PREINCUBATION): inactive; negative | mutagenic call [4]: inactive; negative | mutagenic call [8]: inactive; negative | mutagenic call [5]: inactive; negative | mutagenic call (Test System: AMES SALMONELLA TYPHIMURIUM, Strain/Indicator: TA100, Metabolic Activation: RAT, LIVER, S-9, AROCLOR 1254 (5%), Method: PREINCUBATION): inactive; negative | mutagenic call [6]: inactive; negative | mutagenic call [9]: inactive; negative | mutagenic call (Test System: AMES SALMONELLA TYPHIMURIUM, Strain/Indicator: TA1535, Metabolic Activation: RAT, LIVER, S-9, AROCLOR 1254 (5%), Method: PREINCUBATION): inactive; negative | mutagenic call [10]: inactive; negative | mutagenic call (Test System: AMES SALMONELLA TYPHIMURIUM, Strain/Indicator: TA1537, Metabolic Activation: RAT, LIVER, S-9, AROCLOR 1254 (5%), Method: PREINCUBATION): inactive; negative | mutagenic call [11]: inactive; negative | mutagenic call (Test System: AMES SALMONELLA TYPHIMURIUM, Strain/Indicator: TA1538, Metabolic Activation: RAT, LIVER, S-9, AROCLOR 1254 (5%), Method: PREINCUBATION): inactive; negative

CC1=C(/C=C/C(C)=C/C=C/C(C)=C/C=C/C=C(C)/C=C/C=C(\C)C=O)C(C)(C)CCC1
mutagenic call (End Point: In vitro chromosomal aberrations, Test System: Primary rat (Fischer, female) hepatocytes, Metabolic Activation: None): active; positive | mutagenic call (End Point: In vitro micronucleus, Test System: Primary rat (Fischer, female) hepatocytes, Metabolic Activation: None): active; positive | mutagenic call [3]: inactive; negative | mutagenic call [4]: inactive; negative | mutagenic call [5]: inactive; negative | mutagenic call [6]: inactive; negative

C/C=C/Cl
mutagenic call (Test System: AMES SALMONELLA TYPHIMURIUM, Strain/Indicator: TA100, Metabolic Activation: NONE, Method: DESICCATOR): active; positive | mutagenic call (Test System: AMES SALMONELLA TYPHIMURIUM, Strain/Indicator: TA100, Metabolic Activation: RAT, LIVER, S-9, PCB OR PHENOBARBITAL, Method: DESICCATOR): active; positive

Cc1ccc(CN2C3c4ccccc4-c4ccccc4C32)cc1 (centres undefined)
mutagenic call [5]: active; positive

O=C(O)/C=C/c1ccc([N+](=O)[O-])cc1
mutagenic call (Test System: AMES SALMONELLA TYPHIMURIUM, Strain/Indicator: TA98(1,8-DNP6), Metabolic Activation: NONE, Method: PREINCUBATION): active; positive | mutagenic call (Test System: AMES SALMONELLA TYPHIMURIUM, Strain/Indicator: TA98(1,8-DNP6), Metabolic Activation: RAT, LIVER, S-9, AROCLOR 1254, Method: PREINCUBATION): active; positive | mutagenic call (Test System: AMES SALMONELLA TYPHIMURIUM, Strain/Indicator: TA98(NR), Metabolic Activation: NONE, Method: PREINCUBATION): active; positive | mutagenic call (Test System: AMES SALMONELLA TYPHIMURIUM, Strain/Indicator: TA98(NR), Metabolic Activation: RAT, LIVER, S-9, AROCLOR 1254, Method: PREINCUBATION): active; positive | mutagenic call [7]: active; positive | mutagenic call [3]: active; positive | mutagenic call (Test System: AMES SALMONELLA TYPHIMURIUM, Strain/Indicator: TA98, Metabolic Activation: RAT, LIVER, S-9, AROCLOR 1254, Method: PREINCUBATION): active; positive | mutagenic call [4]: active; positive | mutagenic call (Test System: AMES SALMONELLA TYPHIMURIUM, Strain/Indicator: TA100(1,8-DNP6), Metabolic Activation: NONE, Method: PREINCUBATION): active; positive | mutagenic call (Test System: AMES SALMONELLA TYPHIMURIUM, Strain/Indicator: TA100(1,8-DNP6), Metabolic Activation: RAT, LIVER, S-9, AROCLOR 1254, Method: PREINCUBATION): active; positive | mutagenic call (Test System: AMES SALMONELLA TYPHIMURIUM, Strain/Indicator: TA100(NR), Metabolic Activation: NONE, Method: PREINCUBATION): active; positive | mutagenic call (Test System: AMES SALMONELLA TYPHIMURIUM, Strain/Indicator: TA100(NR), Metabolic Activation: RAT, LIVER, S-9, AROCLOR 1254, Method: PREINCUBATION): active; positive | mutagenic call [8]: active; positive | mutagenic call [5]: active; positive | mutagenic call (Test System: AMES SALMONELLA TYPHIMURIUM, Strain/Indicator: TA100, Metabolic Activation: RAT, LIVER, S-9, AROCLOR 1254, Method: PREINCUBATION): active; positive | mutagenic call [6]: active; positive | mutagenic call [9]: active; positive | mutagenic call [10]: active; positive | mutagenic call [11]: active; positive

O=C(Cl)c1ccc(Cl)cc1Cl
mutagenic call [7]: inactive; negative | mutagenic call (Test System: AMES SALMONELLA TYPHIMURIUM, Strain/Indicator: TA98, Metabolic Activation: RAT LIVER S-9, PCB, Method: PREINCUBATION): active; positive | mutagenic call [8]: inactive; negative | mutagenic call (Test System: AMES SALMONELLA TYPHIMURIUM, Strain/Indicator: TA100, Metabolic Activation: RAT LIVER S-9, PCB, Method: PREINCUBATION): active; positive | mutagenic call (Test System: AMES SALMONELLA TYPHIMURIUM, Strain/Indicator: TA104, Metabolic Activation: NONE, Method: PREINCUBATION): inactive; negative | mutagenic call (Test System: AMES SALMONELLA TYPHIMURIUM, Strain/Indicator: TA104, Metabolic Activation: RAT LIVER S-9, PCB, Method: PREINCUBATION): active; positive | mutagenic call (Test System: Ames Salmonella typhimurium, Strain/Indicator: TA98, Metabolic Activation: None, Method: Preincubation): inactive; negative | mutagenic call (Test System: Ames Salmonella typhimurium, Strain/Indicator: TA98, Metabolic Activation: Rat, Liver, S9, Sodium phenobarbital and 5,6-benzoflavone, Method: Preincubation): inactive; negative | mutagenic call (Test System: Ames Salmonella typhimurium, Strain/Indicator: TA100, Metabolic Activation: None, Method: Preincubation): inactive; negative | mutagenic call (Test System: Ames Salmonella typhimurium, Strain/Indicator: TA100, Metabolic Activation: Rat, Liver, S9, Sodium phenobarbital and 5,6-benzoflavone, Method: Preincubation): inactive; negative | mutagenic call (Test System: Ames Salmonella typhimurium, Strain/Indicator: TA1535, Metabolic Activation: None, Method: Preincubation): inactive; negative | mutagenic call (Test System: Ames Salmonella typhimurium, Strain/Indicator: TA1535, Metabolic Activation: Rat, Liver, S9, Sodium phenobarbital and 5,6-benzoflavone, Method: Preincubation): inactive; negative | mutagenic call (Test System: Ames Salmonella typhimurium, Strain/Indicator: TA1537, Metabolic Activation: None, Method: Preincubation): inactive; negative | mutagenic call (Test System: Ames Salmonella typhimurium, Strain/Indicator: TA1537, Metabolic Activation: Rat, Liver, S9, Sodium phenobarbital and 5,6-benzoflavone, Method: Preincubation): inactive; negative | mutagenic call (Test System: E. coli, Strain/Indicator: WP2uvrA/pKM101, Metabolic Activation: None, Method: Preincubation): inactive; negative | mutagenic call (Test System: E. coli, Strain/Indicator: WP2uvrA/pKM101, Metabolic Activation: Rat, Liver, S9, Sodium phenobarbital and 5,6-benzoflavone, Method: Preincubation): inactive; negative | mutagenic call (Test System: E.COLI, Strain/Indicator: WP2 UVRA, Metabolic Activation: NONE, Method: PREINCUBATION): inactive; negative | mutagenic call (Test System: E.COLI, Strain/Indicator: WP2 UVRA, Metabolic Activation: RAT LIVER S-9, PCB, Method: PREINCUBATION): inactive; negative

Cc1cc2c(cc1C)C(C)c1ccccc1-2 (centres undefined)
mutagenic call [4]: active; positive | mutagenic call [6]: active; positive
